Laboratory results as given in patent US20200022944A1, “COMPOSITION OR MEDICAL FOOD TO EXTRACT THE DIETARY IRON AND BOOST ITS BIOAVAILABILITY FOR IRON DEFICIENCY (ID) AND ID-ANEMIA” (TIXUPHARMA DI CARLO GHISALBERTI, priority 2017, published 2020).

Experiments:
[1] = In vitro digestion model: extraction of dietary non-heme iron from vegetal foods; details: for yield of extracted iron from vegetal food: canned soybean, red beans, peas, 1 ml 10 mM, versus water control; for surplus of yields of gastroactive (GA) model over gastropassive (GP) condition: with versus without classic digestive enzymes
Method: The method assessed the extraction of dietary non-heme iron by maltol or ethyl maltol in simulated digestion of vegetal foods, with/without digestive enzymes. In brief, samples (10 g) of vegetable foods, viz. canned soybean, red beans and peas were smashed in mortar with 5 ml water. Specimen were combined in 50 ml tubes supplemented with HCl solution (pH 2.5) of mix of classic digestive enzymes consisting in: 2 mg pepsin 1:3000; 0.5 mg lipase 200 FIP/g; and bile enzymes, i.e. 2.5 mg bovine bile extract; 1.25 pancreatin extract 4:1 in “gastroactive” model (“GA”). A parallel test named “gastropassive” use non enzymes. Tube were added with 1 ml maltol/ethyl maltol 10 mM, or water in control, and underwent 2 hours of slow motion (60 o/min) at controlled temperature. The pH was finally adjusted to 6-7 (1N NaOH) and the tubes remained on oscillation for further 30 min. The digests were collected, filtered at 100 μm mesh, diluted and read at 405 nm. Results expressed as % recovery of Fe calculated against a calibration curve) are plotted in FIG. 3.

[2] = Cell-free in vitro competition test for Fe(III) versus antinutrients; type: physicochemical; details: for recovery of Fe as 1:3 Fe-ligand complex in competition with non-cathecolic polyphenols (avg.): average; for recovery of Fe as 1:3 Fe-ligand complex in competition with non-cathecolic polyphenols (avg.) / recovery of Fe as 1:3 Fe-ligand complex in competition with oxalates / recovery of Fe as 1:3 Fe-ligand complex in competition with phosphate: vs citrate ref standard of 100% recovery; for recovery of Fe as 1:3 Fe-ligand complex in competition with oxalates / recovery of Fe as 1:3 Fe-ligand complex in competition with phosphate: sequential pH 6/2.5/6.5, CH2Cl2 extract read at 405 nm; for iron competition versus phytate and catecholic polyphenols: without enzymatic co-treatment
Method: The method evaluates the competitive affinity for Fe(III) of maltol/ethyl maltol versus antinutrients, i.e. the iron sequestering agents occurring in food, in a 3-step method which adopts a sequential pH 6/2.5/6.5 mimic the pHs occurring in stomach at fast, during gastro digestion and in duodenum, respectively. Stock solution at 10 mM conc. were prepared by dissolving in water the following reagents: (a) antinutrient series: EDTA (EDTA=negative control), ellagic acid (ELL), gallic acid (GAL), hesperidin (HES), naringin (NAR), monosodium oxalate (OXA), disodium phosphate (PHO), quercetin (QUE), rutin (RUT), tannic acid (TAN), phytic acid sodium salt (PHY); wherein the cathecolic polyphenols (CPP) are presented as pooled (b) maltol (MAL) and ethyl maltol (EMAL); […] In brief, in 15-ml tubes were combined 100 μl of 10 mM FAC (1 μmol); 1 ml of 10 mM CaCl2 (10 μmol); 1 ml of 10 mM 3-hydroxy-4-pyrone (10 μmol); 1 ml of each antinutrient at 10 mM (10 μmol); and 2 ml of water to 5 ml final volume. No antinutrients were introduced in the positive control. Tubes were oscillated at 30 rpm for 2.5 hours, of which: 1 hour at initial pH 6-6.5; 1 hour at pH 2-2.5 (by 50 μl 1N HCl), and final 30 min. at pH around 6.5 (by 50 μl 1N NaOH). The tubes were then added with 2 ml di CH2Cl2 and shacked for 2 min. […] Residues were taken up with 2 ml water and read at 405 nm. Absorbance calibration: r=0.30 and linear correlation within the 40-4 μM range (r2=1; […] on 0-intercept).

Caco-2 cells = experiment: Caco-2 monolayer absorption: ferritin formation; details: 1 h contact at 37° C., 23 h re-incubation; Fe 200 μM
Method: Caco-2 cells cultivated and used at passages 24-50 in culture medium, serum-free MEM, were exposed to test substances in culture medium.
(§1) (a) maltol (MAL) and ethyl maltol (EMAL) at 10 mM concentration;
(§2) (c) iron sources: FAC (Fe^III) and ferrous sulfate (FS, Fe^III) at 1:10 eq/eq with respect to AA, at 1:20 eq/eq with respect to CA, and at 1:5 eq/eq with respect to MAL.
(§3) The final Fe concentration was fixed 200 μM with the other molar ratio as listed above, while the solution were then neutralized to pH 6-7.
One hour contact at 37° C. was used for similarity of duodenal contact time. After incubation 1 h the medium was aspirated, cell monolayer washed 3× PBS-EDTA and fresh MEM added. Cells were re-incubated for 23 h to allow ferritin formation, lysed with 400 μl of MPER® lysis buffer, lysate collected, centrifuged for 5′ at 16,000×g, and supernatant collected for analysis. The solutions were filter-sterilized (0.2 μm syringe filter) prior dilution in the culture medium.
Ferritin content of Caco-2 cells was determined by an ELISA kit, results corrected for the baseline values and expressed in relation to total cell protein in ng ferritin/mg cell protein.

[3] = test system: rodents conducted to anemia by iron starvation; experiment: Murine model of anemic therapy (iron-deficient diet); type: in vivo, female Wistar rats; details: normalized-iron vegetal diet comprising the substance after ID diet, compared to both controls
Method: This in vivo murine study sized the capacity of maltol/ethyl maltol compounded into food to enhance iron uptake in rodents conducted to anemia by iron starvation. For that purpose, 6-wk old female Wistar rats were fed for 28 days a iron-deficient diet (Fe:12 mg/kg), labeled IDD1. A control group received standard diet (Fe:45 mg/kg) (Ctrl1) along the entire experiment. In the second stage, IDD1 rats were randomized for 26 days test diets conceived as follows: the M3 and EM3 groups received cookies with 3% of maltol or 3% ethyl maltol, respectively. The M/EMO group was fed with cookies without maltol/ethyl maltol; while the IDD2 group was maintained at Fe-deficient diet. […] Cookies were produced from corn flour and vegetal fat, and backed at 180° C. for 15 minM, whereas in M3 and EM3 groups a portion (3%) of corn flour was replaced with maltol and ethyl maltol. Animals were kept in room with 12 h light/dark cycle, temperature of 24° C. […], and drinking water ad libitum. […] Serum iron was measured at 623 nm, haemoglobin content (Hb) total iron binding capacity (TIBC), erythrocytes, haemoglobin (Hb), hematocrit (Ht), mean corpuscular volume (MCV), mean corpuscular haemoglobin (MCH), and MCH concentration (MCHC) assessed according to Regula et al. Ann Agric Environ Med 2016;23(2):310-4. Iron transferrin saturation (TSAT) was calculated by the formula: TSAT=(Fe/TIBC)×[…].

[4] = test system: inflammatory bowel disease; details: animal model of IBD; Minaiyan et al. 2012; cited from earlier work
[5] = pH 6
Method: as §1, §2, §3
Total iron was determined by inductively-coupled plasma optical emission spectrometry, where both ICP-OES standards and samples were diluted in 0.5% HNO3 in 0-1000 ppb range. Physical classification of iron was assessed after centrifugation (10,000×g, 5 min.), the supernatant was ultrafiltrated with 3kDa MWCO filter 10,000×g, 10 min. Phase distribution was calculated as: iron microparticulate (total Fe−Fe in supernatant), iron nanoparticulate (Fe ultrafiltrate−Fe in supernatant) and soluble iron (Fe ultrafiltrate/total Fe).

## CCc1occc(=O)c1O [ethyl maltol]
[1]
  yield of extracted iron from vegetal food: increased the yield of extracted iron from vegetal food
  surplus of yields of gastroactive (GA) model over gastropassive (GP) condition: about 10%
[2]
  recovery of Fe as 1:3 Fe-ligand complex in competition with non-cathecolic polyphenols (avg.): 95%
  recovery of Fe as 1:3 Fe-ligand complex in competition with oxalates: 89%
  recovery of Fe as 1:3 Fe-ligand complex in competition with phosphate: 98%
  iron competition versus phytate and catecholic polyphenols: limited efficiency
Caco-2 cells
  ferritin formation in Caco-2 cells: produced soluble iron utilized by enteric cells for ferritin synthesis
[3]
  recovery of iron and hematologic levels: faster recovery of iron and hematologic levels

## Cc1occc(=O)c1O [maltol]
[1]
  yield of extracted iron from vegetal food: increased the yield of extracted iron from vegetal food
  surplus of yields of gastroactive (GA) model over gastropassive (GP) condition: about 10%
[2]
  recovery of Fe as 1:3 Fe-ligand complex in competition with non-cathecolic polyphenols (avg.): 95%
  recovery of Fe as 1:3 Fe-ligand complex in competition with oxalates: 89%
  recovery of Fe as 1:3 Fe-ligand complex in competition with phosphate: 98%
  iron competition versus phytate and catecholic polyphenols: limited efficiency
[4]
  therapeutic dosage (ED50): 140-240 mg/kg bw
Caco-2 cells
  ferritin formation in Caco-2 cells: produced soluble iron utilized by enteric cells for ferritin synthesis
[5]
  iron solubility / phase distribution: retain the Fe(III) solubility at supplemental levels
[3]
  recovery of iron and hematologic levels: faster recovery of iron and hematologic levels
